Data reported in patent US20230071463A1, “SOLID STATE FORMS OF […] AND PROCESS FOR PREPARATION THEREOF” (TEVA PHARMACEUTICALS INTERNATIONAL GMBH, priority 2020, published 2023).

Columns and labels:
[1] = Solid state stability on exposure to high relative humidity; type: physicochemical
[2] = Solid state stability on exposure to high temperatures and high relative humidity; type: physicochemical

Row | Structure (SMILES) | stability when exposed to high relative humidity [1] | stability when exposed to high temperatures and high relative humidity [2]
1 | [Cl][Mn-5]1234([Cl])[n+]5c6cccc5C[NH+]1[C@H]1CCCC[C@@H]1[NH+]2CC[NH+]3[C@H]1CCCC[C@@H]1[NH+]4C6 (some centres unmarked) [Form AM1, Avasopasem manganese] | stable | –
2 | [Cl][Mn-5]1234([Cl])[n+]5c6cccc5C[NH+]1[C@H]1CCCC[C@@H]1[NH+]2CC[NH+]3[C@H]1CCCC[C@@H]1[NH+]4C6 (some centres unmarked) [Form AM2, Avasopasem manganese] | – | stable
